# Measurements taken from patent publication US20230159489A1, “PHD INHIBITOR COMPOUNDS, COMPOSITIONS, AND USE” (Akebia Therapeutics, Inc., priority 2020, published 2023).
# Legend:
# [1] = molecular target: T1, full-length human PHD1 (Homo sapiens, UniProt Q96KS0); assay: TR-FRET assay, enzymatic IC50 against PHD1; format: biochemical; as to IC50: 15 nM PHD1
# T1 construct: FLAG (N); purchased Active Motif 81064; host or cells: baculovirus expression system
# Description: PHD1 was expressed in a baculovirus expression system as the full-length protein (NCBI accession number NP_542770.2) with an N-terminal FLAG tag (molecular weight 44.9 kDa).
# [2] = molecular target: full-length human PHD2 (Homo sapiens, UniProt Q9GZT9); assay: TR-FRET assay, enzymatic IC50 against PHD2
# Sequence of full-length human PHD2 (Q9GZT9 whole entry): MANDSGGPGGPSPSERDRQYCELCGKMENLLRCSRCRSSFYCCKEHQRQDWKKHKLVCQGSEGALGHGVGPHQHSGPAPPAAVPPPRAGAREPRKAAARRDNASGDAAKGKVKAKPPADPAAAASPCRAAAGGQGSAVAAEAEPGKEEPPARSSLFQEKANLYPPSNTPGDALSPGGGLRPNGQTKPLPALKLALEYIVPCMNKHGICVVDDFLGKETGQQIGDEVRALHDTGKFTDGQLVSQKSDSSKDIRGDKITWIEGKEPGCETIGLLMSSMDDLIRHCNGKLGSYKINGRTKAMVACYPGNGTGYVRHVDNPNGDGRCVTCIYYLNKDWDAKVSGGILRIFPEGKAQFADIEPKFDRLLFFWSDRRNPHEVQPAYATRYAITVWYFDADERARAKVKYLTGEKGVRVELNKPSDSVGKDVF
# Description: Time-resolved fluorescence resonance energy transfer (TR-FRET) assay was utilized to determine the enzymatic half maximal inhibitory concentration (IC50) value of PHD inhibitors against the full-length human prolyl-4-hydroxylase domain (PHD) enzymes, PHD1, PHD2, and PHD3. The TR-FRET assay was developed based on the specific binding of hydroxylated HIF-1α peptide with the complex formed by VHL, EloB and EloC (VBC), to generate a fluorescent signal. Terbium (Tb)-Donor (monoclonal antibody anti-6His-Tb-cryptate Gold) and D2-acceptor (streptavidin [SA]-D2) of TR-FRET are linked to the VBC complex and to HIF-1α peptide, respectively. The VBC complex binds specifically to the HIF-1α peptide when it is hydroxylated, allowing energy transfer from TR-FRET donor to acceptor (FIG. 1). […] The plates were incubated for 30 minutes at room temperature without rotation. […] TR-FRET assays were performed in triplicate at each concentration of compound and the assays were repeated independently three times.
# T1 sequence (Q96KS0 whole entry): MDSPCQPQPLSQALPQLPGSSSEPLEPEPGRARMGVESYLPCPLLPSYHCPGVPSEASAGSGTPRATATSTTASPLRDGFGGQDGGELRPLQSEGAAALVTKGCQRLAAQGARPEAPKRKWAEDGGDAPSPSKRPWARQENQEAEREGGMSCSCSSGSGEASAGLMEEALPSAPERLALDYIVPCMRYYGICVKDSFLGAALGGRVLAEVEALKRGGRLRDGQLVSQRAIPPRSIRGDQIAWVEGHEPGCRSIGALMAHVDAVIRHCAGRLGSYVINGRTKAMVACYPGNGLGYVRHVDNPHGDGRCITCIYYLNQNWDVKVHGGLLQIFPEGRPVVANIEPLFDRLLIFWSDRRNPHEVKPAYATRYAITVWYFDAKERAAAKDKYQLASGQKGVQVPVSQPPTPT
SMILES,IC50 [1],IC50 [2],Km ([1]; read-out: Km of 2-OG for PHD1)
"Cc1nn(-c2ccc(CC(=O)O)cn2)c(O)c1-c1ccc(C#N)cc1 [Compound 47, 2-(6-(4-(4-cyanophenyl)-5-hydroxy-3-methyl-1H-pyrazol-1-yl)pyridin-3-yl)acetic acid]",< 100 nM,< 100 nM,
"Cc1nn(-c2ccc(NS(=O)(=O)N(C)C)cn2)c(O)c1-c1ccc(C#N)cc1 [Compound 52, N-(6-(4-(4-cyanophenyl)-5-hydroxy-3-methyl-1H-pyrazol-1-yl)pyridin-3-yl)-N′-dimethylsulfamide]",< 100 nM,< 100 nM,
"Cc1cc(-n2nc(C)c(-c3ccc(C#N)cc3)c2O)ncc1N1CCCC1=O [Compound 37, 4-(5-hydroxy-3-methyl-1-(4-methyl-5-(2-oxopyrrolidin-1-yl)pyridin-2-yl)-1H-pyrazol-4-yl)benzonitrile]",< 100 nM,< 100 nM,
"Cc1cc(-n2nc(C)c(-c3ccc(C#N)cc3)c2O)ncc1S(C)(=O)=O [Compound 46, 4-(5-hydroxy-3-methyl-1-(4-methyl-5-(methylsulfonyl)pyridin-2-yl)-1H-pyrazol-4-yl)benzonitrile]",< 100 nM,< 100 nM,
"CNS(=O)(=O)Nc1ccc(-n2nc(C)c(-c3ccc(C#N)cc3)c2O)nc1 [Compound 51, N-(6-(4-(4-cyanophenyl)-5-hydroxy-3-methyl-1H-pyrazol-1-yl)pyridin-3-yl)-N′-methylsulfamide]",< 100 nM,< 100 nM,
"CC(=O)NS(=O)(=O)c1ccc(-n2nc(C)c(-c3ccc(C#N)cc3)c2O)nc1 [Compound 29, N-((6-(4-(4-cyanophenyl)-5-hydroxy-3-methyl-1H-pyrazol-1-yl)pyridin-3-yl)sulfonyl)acetamide]",< 100 nM,< 100 nM,
"Cc1cc(-n2nc(C)c(-c3ccc(C#N)cc3)c2O)ncc1[S@@](=N)(=O)C1CC1 [Compound 68, (S)-4-(1-(5-(cyclopropanesulfonimidoyl)-4-methylpyridin-2-yl)-5-hydroxy-3-methyl-1H-pyrazol-4-yl)benzonitrile]",< 100 nM,< 100 nM,
"CNS(=N)(=O)c1ccc(-n2nc(C)c(-c3ccc(C#N)cc3)c2O)nc1 (centres unmarked) [Compound 26, 6-(4-(4-cyanophenyl)-5-hydroxy-3-methyl-1H-pyrazol-1-yl)-N-methylpyridine-3-sulfonimidamide]",< 100 nM,< 100 nM,
"Cc1nn(-c2ccc(-c3cn(C)nn3)cn2)c(O)c1-c1ccc(C#N)cc1 [Compound 54, 4-(5-hydroxy-3-methyl-1-(5-(1-methyl-1H-1,2,3-triazol-4-yl)pyridin-2-yl)-1H-pyrazol-4-yl)benzonitrile]",< 100 nM,,
"Cc1cc(-c2c(C)nn(-c3ccc(S(C)(=O)=O)cn3)c2O)ccc1O [Compound 48, 4-(4-hydroxy-3-methylphenyl)-3-methyl-1-(5-(methylsulfonyl)pyridin-2-yl)-1H-pyrazol-5-ol]",100 to 1000 nM,100 to 1000 nM,
"Cc1nn(-c2ccc([S@@](=N)(=O)C(C)C)cn2)c(O)c1-c1ccc(C#N)cc1 [Compound 41, (S)-4-(5-hydroxy-3-methyl-1-(5-(S-isopropylsulfonimidoyl)pyridin-2-yl)-1H-pyrazol-4-yl)benzonitrile]",< 100 nM,< 100 nM,
"Cc1nn(-c2ccc(S(=N)(=O)N(C)C)cn2)c(O)c1-c1ccc(C#N)cc1 (centres unmarked) [Compound 25, 6-(4-(4-cyanophenyl)-5-hydroxy-3-methyl-1H-pyrazol-1-yl)-N,N-dimethylpyridine-3-sulfonimidamide]",< 100 nM,< 100 nM,
"Cc1nn(-c2ccc([S@@](=N)(=O)C3CC3)cn2)c(O)c1-c1ccc(Cl)cc1 [Compound 65, (S)-(6-(4-(4-chlorophenyl)-5-hydroxy-3-methyl-1H-pyrazol-1-yl)pyridin-3-yl)(cyclopropyl)(imino)-λ^6-sulfanone]",< 100 nM,< 100 nM,
"Cc1nn(-c2cc(C3CC3)c(S(C)(=O)=O)cn2)c(O)c1-c1ccc(C#N)cc1 [Compound 53, 4-(1-(4-cyclopropyl-5-(methylsulfonyl)pyridin-2-yl)-5-hydroxy-3-methyl-1H-pyrazol-4-yl)benzonitrile]",< 100 nM,< 100 nM,
"Cc1cc(-n2nc(C)c(-c3ccc(C#N)cc3)c2O)ncc1S(=O)(=O)Nc1ccccc1 [Compound 70, 6-(4-(4-cyanophenyl)-5-hydroxy-3-methyl-1H-pyrazol-1-yl)-4-methyl-N-phenylpyridine-3-sulfonamide]",< 100 nM,100 to 1000 nM,
"Cc1nn(-c2ccc(S(=N)(=O)C3CC3)cn2)c(O)c1-c1ccc(C#N)cc1 (centres unmarked) [Compound 33, 4-(1-(5-(cyclopropanesulfonimidoyl)pyridin-2-yl)-5-hydroxy-3-methyl-1H-pyrazol-4-yl)benzonitrile]",< 100 nM,< 100 nM,
"Cc1nn(-c2ccc(-n3cc(-c4ccccc4)cn3)cn2)c(O)c1-c1ccc(C#N)cc1 [Compound 64, 4-(5-Hydroxy-3-methyl-1-(5-(4-phenyl-1H-pyrazol-1-yl)pyridin-2-yl)-1H-pyrazol-4-yl)benzonitrile]",< 100 nM,100 to 1000 nM,

SMILES,IC50 [1],IC50 [2],Km ([1]; read-out: Km of 2-OG for PHD1)
"Cc1cc(-n2nc(C)c(-c3ccc(C#N)cc3)c2O)ncc1[S@](=N)(=O)C1CC1 [Compound 69, (R)-4-(1-(5-(cyclopropanesulfonimidoyl)-4-methylpyridin-2-yl)-5-hydroxy-3-methyl-1H-pyrazol-4-yl)benzonitrile]",< 100 nM,< 100 nM,
"Cc1nc(-n2nc(C)c(-c3ccc(C#N)cc3)c2O)ccc1S(C)(=O)=O [Compound 45, 4-(5-hydroxy-3-methyl-1-(6-methyl-5-(methylsulfonyl)pyridin-2-yl)-1H-pyrazol-4-yl)benzonitrile]",1000 to 10000 nM,1000 to 10000 nM,
"CC(=O)NS(=O)(=O)c1ccc(-n2nc(C)c(-c3ccc(Cl)cc3)c2O)nc1 [Compound 30, N-((6-(4-(4-chlorophenyl)-5-hydroxy-3-methyl-1H-pyrazol-1-yl)pyridin-3-yl)sulfonyl)acetamide]",< 100 nM,< 100 nM,
"Cc1nn(-c2ccc(S(=N)(=O)c3ccccc3)cn2)c(O)c1-c1ccc(C#N)cc1 (centres unmarked) [Compound 20, 4-(5-hydroxy-3-methyl-1-(5-(phenylsulfonimidoyl)pyridin-2-yl)-1H-pyrazol-4-yl)benzonitrile]",< 100 nM,< 100 nM,
"COc1ccc(-c2c(C)nn(-c3ccc(S(C)(=O)=O)cn3)c2O)cc1C [Compound 49, 4-(4-methoxy-3-methylphenyl)-3-methyl-1-(5-(methylsulfonyl)pyridin-2-yl)-1H-pyrazol-5-ol]",100 to 1000 nM,100 to 1000 nM,
"Cc1nn(-c2ccc(-c3nc(-c4ccccc4)cs3)cn2)c(O)c1-c1ccc(C#N)cc1 [Compound 62, 4-(5-Hydroxy-3-methyl-1-(5-(4-phenylthiazol-2-yl)pyridin-2-yl)-1H-pyrazol-4-yl)benzonitrile]",100 to 1000 nM,> 10000 nM,
"Cc1cc(-n2nc(C)c(-c3ccc(C#N)cc3)c2O)ncc1NS(C)(=O)=O [Compound 39, N-(6-(4-(4-cyanophenyl)-5-hydroxy-3-methyl-1H-pyrazol-1-yl)-4-methylpyridin-3-yl)methanesulfonamide]",< 100 nM,< 100 nM,
"Cc1cc(-n2nc(C)c(-c3ccc(C#N)cc3)c2O)ncc1S(=O)(=O)N1CCCC1 [Compound 72, 4-(5-hydroxy-3-methyl-1-(4-methyl-5-(pyrrolidin-1-ylsulfonyl)pyridin-2-yl)-1H-pyrazol-4-yl)benzonitrile]",< 100 nM,,
"Cc1nn(-c2ccc(-c3ncco3)cn2)c(O)c1-c1ccc(C#N)cc1 [Compound 59, 4-(5-Hydroxy-3-methyl-1-(5-(oxazol-2-yl)pyridin-2-yl)-1H-pyrazol-4-yl)benzonitrile]",< 100 nM,< 100 nM,
"Cc1cc(-n2nc(C)c(-c3ccc(C#N)cc3)c2O)ncc1S(N)(=O)=O [Compound 38, 6-(4-(4-cyanophenyl)-5-hydroxy-3-methyl-1H-pyrazol-1-yl)-4-methylpyridine-3-sulfonamide]",< 100 nM,< 100 nM,
"Cc1nn(-c2ccc([S@](=N)(=O)C(C)C)cn2)c(O)c1-c1ccc(C#N)cc1 [Compound 42, (R)-4-(5-hydroxy-3-methyl-1-(5-(S-isopropylsulfonimidoyl)pyridin-2-yl)-1H-pyrazol-4-yl)benzonitrile]",< 100 nM,< 100 nM,
"Cc1nn(-c2ccc(C(=O)NS(C)(=O)=O)cn2)c(O)c1-c1ccc(Cl)cc1 [Compound 28, 6-(4-(4-chlorophenyl)-5-hydroxy-3-methyl-1H-pyrazol-1-yl)-N-(methylsulfonyl)nicotinamide]",< 100 nM,100 to 1000 nM,
"O=C(O)CCC(=O)C(=O)O [Compound 2-OG, 2-oxoglutarate, reference compound]",,,0.0127 µM
"Cc1nn(-c2ccc(-c3ncc(-c4ccccc4)s3)cn2)c(O)c1-c1ccc(C#N)cc1 [Compound 61, 4-(5-Hydroxy-3-methyl-1-(5-(5-phenylthiazol-2-yl)pyridin-2-yl)-1H-pyrazol-4-yl)benzonitrile]",< 100 nM,> 10000 nM,
"Cc1nn(-c2ccc([S@@](C)(=N)=O)cn2)c(O)c1-c1ccc(C#N)cc1 [Compound 16, (S)-4-(5-hydroxy-3-methyl-1-(5-(S-methylsulfonimidoyl)pyridin-2-yl)-1H-pyrazol-4-yl)benzonitrile]",< 100 nM,< 100 nM,
"Cc1nn(-c2ccc(S(C)(=N)=O)cn2)c(O)c1-c1ccc(Cl)cc1 (centres unmarked) [Compound 18, (6-(4-(4-chlorophenyl)-5-hydroxy-3-methyl-1H-pyrazol-1-yl)pyridin-3-yl)(imino)(methyl)-λ^6-sulfanone]",< 100 nM,< 100 nM,
"Cc1nn(-c2ccc(NC(=O)N3CCOCC3)cn2)c(O)c1-c1ccc(C#N)cc1 [Compound 31, N-(6-(4-(4-cyanophenyl)-5-hydroxy-3-methyl-1H-pyrazol-1-yl)pyridin-3-yl)morpholine-4-carboxamide]",< 100 nM,100 to 1000 nM,
